ChEMBL document CHEMBL1130451, “Synthesis and cytotoxicity of amino analogues of the potent DNA alkylating agent seco-CBI-TMI” (Bioorg Med Chem Lett, 1997)

Assay: Concentration required for 50% inhibition of growth of AA8 cells following 4 hr drug exposure
Format: functional, cell-based
Settings: Cricetulus griseus, CHO-AA8, 4 h

SMILES | IC50
CNc1cc2c(c3ccccc13)C(CCl)CN2C(=O)c1cc2cc(OC)c(OC)c(OC)c2[nH]1 (stereo not drawn) | 0.17 nM
COc1cc2cc(C(=O)N3CC(CCl)c4c3cc(N(C)C)c3ccccc43)[nH]c2c(OC)c1OC (stereo not drawn) | 5.6 nM
COc1cc2cc(C(=O)N3CC(CCl)c4c3cc(N)c3ccccc43)[nH]c2c(OC)c1OC (stereo not drawn) | 0.43 nM
COc1cc2cc(C(=O)N3CC(CCl)c4ccc(N(C)C)cc43)[nH]c2c(OC)c1OC (stereo not drawn) | 280 nM
COc1cc2cc(C(=O)N3CC(CCl)c4ccc([N+](=O)[O-])cc43)[nH]c2c(OC)c1OC (stereo not drawn) | > 40000 nM
COc1cc2cc(C(=O)N3CC(CCl)c4c3cc([N+](=O)[O-])c3ccccc43)[nH]c2c(OC)c1OC (stereo not drawn) | 1600 nM
CNc1ccc2c(c1)N(C(=O)c1cc3cc(OC)c(OC)c(OC)c3[nH]1)CC2CCl (stereo not drawn) | 220 nM
COc1cc2cc(C(=O)N3CC(CCl)c4ccc(N)cc43)[nH]c2c(OC)c1OC (stereo not drawn) | 320 nM
